# Test system: HCV 1b genotype
# Assay: HCV Replicon assay (HCV 16-377-neo replicon cells)
# Format: cell-based
# Settings: Hepatitis C virus; HCV 1b genotype replicon cells; read-out: EC50 ranges against HCV 1b
# Protocol: An HCV Replion assay was utilized in the present disclosure, and was prepared, conducted and validated as described in commonly owned PCT/US2006/022197 and in O'Boyle et. al. Antimicrob Agents Chemother. 2005 Apr;49(4): 1346-53.
# HCV 16-377-neo replicon cells were used to test the currently described compound series as well as cells resistant to compound A due to a Y2065H mutation in NS5A (described in application PCT/US2006/022197). The compounds tested were determined to have more than 10-fold less inhibitory activity on cells resistant to compound A than wild-type cells indicating a related mechanism of action between the two compound series. Thus, the compounds of the present disclosure can be effective to inhibit the function of the HCV NS5A protein and are understood to be as effective in combinations as previously described in application PCT/US2006/022197 and commonly owned WO/O4014852. Further, the compounds of the present disclosure can be effective against the HCV 1b genotype. It should also be understood that the compounds of the present disclosure can inhibit multiple genotypes of HCV. […] In one embodiment compounds of the present disclosure are active against the 1a, 1b, 2a, 2b, 3a, 4a, and 5a genotypes.
row,Compound,EC50
1,"COC(=O)N[C@@H](C(=O)N1CCC[C@H]1c1nc(-c2ccc(-c3ccc(-c4nc([C@@H]5CCCN5C(=O)[C@H](NC(=O)OC)c5ccccc5)[nH]c4C)cc3)cc2)c[nH]1)c1ccccc1 [Example E5c, methyl ((1R)-2-((2S)-2-(4-(4'-(2-((2S)-1-((2R)-2-((methoxycarbonyl)amino)-2-phenylacetyl)-2-pyrrolidinyl)-1H-imidazol-4-yl)-4-biphenylyl)-5-methyl-1H-imidazol-2-yl)-1-pyrrolidinyl)-2-oxo-1-phenylethyl)carbam ate]",0.001 to 0.999 nM
2,"CC(C)[C@H](O)C(=O)N1[C@@H](C)CC[C@H]1c1nc(-c2ccc(-c3ccc(-c4c[nH]c([C@@H]5CC[C@H](C)N5C(=O)[C@@H](O)C(C)C)n4)cc3)cc2)c[nH]1 [Example M161, (2S,2'S)-1,1'-(4,4'-biphenyldiylbis(1H-imidazole-4,2-diyl((2S,5S)-5-methyl-2,1-pyrrolidinediyl)))bis(3-methyl-1-oxo-2-butanol)]",1 to 99 nM
3,"COC(=O)N[C@H](C(=O)N1CCC[C@H]1c1nc(-c2ccc(-c3ccc(-c4nc([C@@H]5CCCN5C(=O)[C@@H](NC(=O)OC)[C@@H](C)OC)[nH]c4C)cc3)cc2)c(C)[nH]1)[C@@H](C)OC [Example E5m, methyl ((1S,2R)-2-methoxy-1-(((2S)-2-(4-(4'-(2-((2S)-1-(N-(methoxycarbonyl)-O-methyl-L-threonyl)-2-pyrrolidinyl)-5-methyl-1H-imidazol-4-yl)-4-biphenylyl)-5-methyl-1H-imidazol-2-yl)-1-pyrrolidinyl)carbonyl)propyl)carbamate]",0.001 to 0.999 nM
4,"COC(=O)NCC(=O)N1[C@@H](C)CC[C@H]1c1nc(-c2ccc(-c3ccc(-c4c[nH]c([C@@H]5CC[C@H](C)N5C(=O)CNC(=O)OC)n4)cc3)cc2)c[nH]1 [Example M155, methyl (2-((2S,5S)-2-(4-(4'-(2-((2S,5S)-1-(((methoxycarbonyl)amino)acetyl)-5-methyl-2-pyrrolidinyl)-1H-imidazol-4-yl)-4-biphenylyl)-1H-imidazol-2-yl)-5-methyl-1-pyrrolidinyl)-2-oxoethyl)carbamate]",1 to 99 nM
5,"COC(=O)N[C@H](C(=O)N1CCC[C@H]1c1nc(-c2ccc(-c3ccc(-c4[nH]c([C@@H]5CCCN5C(=O)[C@@H](NC(=O)OC)C(C)C)nc4CC(OC)OC)cc3)cc2)c[nH]1)C(C)C [Example J14a.1, methyl ((1S)-1-(((2S)-2-(4-(2,2-dimethoxyethyl)-5-(4'-(2-((2S)-1-((2S)-2-((methoxycarbonyl)amino)-3-methylbutanoyl)-2-pyrrolidinyl)-1H-imidazol-4-yl)-4-biphenylyl)-1H-imidazol-2-yl)-1-pyrrolidinyl)carbonyl)-2-methylpropyl)carba mate]",0.001 to 0.999 nM
6,"COC(=O)N[C@H](C(=O)N1CCC[C@H]1c1nc(-c2ccc(-c3ccc(-c4[nH]c([C@@H]5CCCN5C(=O)[C@@H](NC(=O)OC)C(C)C)nc4CO)cc3)cc2)c[nH]1)C(C)C [Example J14f, methyl ((1S)-1-(((2S)-2-(4-(hydroxymethyl)-5-(4'-(2-((2S)-1-((2S)-2-((methoxycarbonyl)amino)-3-methylbutanoyl)-2-pyrrolidinyl)-1H-imidazol-4-yl)-4-biphenylyl)-1H-imidazol-2-yl)-1-pyrrolidinyl)carbonyl)-2-methylpropyl)carba mate]",0.001 to 0.999 nM
7,"CC(=O)N[C@@H](C(=O)N1[C@@H]2CC2C[C@H]1c1nc(-c2ccc(-c3ccc(-c4c[nH]c([C@@H]5C[C@H]6C[C@H]6N5C(=O)[C@H](NC(C)=O)C(C)C)n4)cc3)cc2)c[nH]1)C(C)C (mixture of isomers) [Example M143, N-((1R)-1-(((1R,3S,5R)-3-(4-(4'-(2-((1R,3S,SR)-2-((2R)-2-acetamido-3-methylbutanoyl)-2-azabicyclo[3.1.0]hex-3-yl)-1H-imidazol-4-yl)-4-biphenylyl)-1H-imidazol-2-yl)-2-azabicyclo[3.1.0]hex-2-yl)carbonyl)-2-methylpropyl)acetamide]",1 to 99 nM
8,"CC[C@H](NC(=O)OC)C(=O)N1[C@@H](C)CC[C@H]1c1nc(-c2ccc(-c3ccc(-c4c[nH]c([C@@H]5CC[C@H](C)N5C(=O)[C@H](CC)NC(=O)OC)n4)cc3)cc2)c[nH]1 [Example M154, dimethyl (4,4'-biphenyldiylbis(1H-imidazole-4,2-diyl((2S,5S)-5-methyl-2,1-pyrrolidinediyl)((2S)-1-oxo-1,2-butanediyl)))biscarbamate]",0.001 to 0.999 nM
9,"Cc1nc([C@@H]2CCCN2C(=O)[C@@H](c2ccccc2)N(C)C)[nH]c1-c1ccc(-c2ccc(-c3[nH]c([C@@H]4CCCN4C(=O)[C@@H](c4ccccc4)N(C)C)nc3C)cc2)cc1 [Example E5g, (1R,1'R)-2,2'-(4,4'-biphenyldiylbis((4-methyl-1H-imidazole-5,2-diyl)(2S)-2,1-pyrrolidinediyl))bis (N,N-dimethyl-2-oxo-1-phenylethanamine)]",0.001 to 0.999 nM
10,"COC(=O)N[C@@H](C)C(=O)N1[C@@H]2C[C@@H]2C[C@H]1c1ncc(-c2ccc(-c3ccc(-c4cnc([C@@H]5C[C@H]6C[C@H]6N5C(=O)[C@H](C)NC(=O)OC)[nH]4)cc3)cc2)[nH]1 [Example M132, methyl ((1S)-2-((1R,3S,5R)-3-(4-(4'-(2-((1R,3S,SR)-2-(N(methoxycarbonyl)-L-alanyl)-2-azabicyclo[3.1.0]hex-3-yl)-1H-imidazol-4-yl)-4-biphenyl)-1H-imidazol-2-yl)-2-azabicyclo[3.1.0]hex-2-yl)-1-methyl-2-oxoethyl)carbamate]",0.001 to 0.999 nM
11,"CCCc1nc([C@@H]2CCCN2C(=O)[C@H](C)NC(=O)OC)[nH]c1-c1ccc(-c2ccc(-c3c[nH]c([C@@H]4CCCN4C(=O)[C@H](C)NC(=O)OC)n3)cc2)cc1 [Example J14c, methyl ((1S)-2-((2S)-2-(4-(4'-(2-((2S)-1-(N-(methoxycarbonyl)-L-alanyl)-2-pyrrolidinyl)-4-propyl-1H-imidazol-5-yl)-4-biphenylyl)-1H-imidazol-2-yl)-1-pyrrolidinyl)-1-methyl-2-oxoethyl)carbamate]",0.001 to 0.999 nM
12,"COC(=O)N[C@H](C(=O)N1[C@@H](C)CC[C@H]1c1nc(-c2ccc(-c3ccc(-c4c[nH]c([C@@H]5CC[C@H](C)N5C(=O)[C@@H](NC(=O)OC)C(C)C)n4)cc3)cc2)c[nH]1)C(C)C [Example M151, methyl ((1S)-1-(((2S,5S)-2-(4-(4'-(2-((2S,5S)-1-((2S)-2-((methoxycarbonyl)amino)-3-methylbutanoyl)-5-methyl-2-pyrrolidinyl)-1H-imidazol-4-yl)-4-biphenylyl)-1H-imidazol-2-yl)-5-methyl-1-pyrrolidinyl)carbonyl)-2-methylpropyl)carbamate]",0.001 to 0.999 nM
13,"CC(C)CC(=O)N1[C@@H](C)CC[C@H]1c1nc(-c2ccc(-c3ccc(-c4c[nH]c([C@@H]5CC[C@H](C)N5C(=O)CC(C)C)n4)cc3)cc2)c[nH]1 [Example M158, 4,4'-(4,4'-biphenyldiyl)bis(2-((2S,5S)-5-methyl-1-(3-methylbutanoyl)-2-pyrrolidinyl)-1H-imidazole)]",1 to 99 nM
14,"CCN(CC)[C@@H](C(=O)N1CCC[C@H]1c1nc(C)c(-c2ccc(-c3ccc(-c4[nH]c([C@@H]5CCCN5C(=O)[C@@H](c5ccccc5)N(CC)CC)nc4C)cc3)cc2)[nH]1)c1ccccc1 [Example E5h, (1R,1'R)-2,2'-(4,4'-biphenyldiylbis((4-methyl-1H-imidazole-5,2-diyl)(2S)-2,1-pyrrolidinediyl))bis (N,N-diethyl-2-oxo-1-phenylethanamine)]",0.001 to 0.999 nM
15,COC(=O)N[C@H](C(=O)N1[C@@H]2C[C@@H]2C[C@H]1c1ncc(-c2ccc(-c3ccc(-c4cnc([C@@H]5C[C@H]6C[C@H]6N5C(=O)CCCC[C@@H]5SC[C@@H]6NC(=O)N[C@@H]65)[nH]4)cc3)cc2)[nH]1)C(C)C [Example M139],0.001 to 0.999 nM
16,"CC(=O)N1[C@@H](C)CC[C@H]1c1nc(-c2ccc(-c3ccc(-c4cnc([C@@H]5CC[C@H](C)N5C(C)=O)[nH]4)cc3)cc2)c[nH]1 [Example M162, 2-((2S,5S)-1-acetyl-5-methyl-2-pyrrolidinyl)-4-(4'-(2-((2S,5S)-1-acetyl-5-methyl-2-pyrrolidinyl)-1H-imidazol-5-yl)-4-biphenylyl)-1H-imidazole]",1 to 99 nM
17,"COC(=O)N[C@H](C(=O)N1CC(F)(F)C[C@H]1c1nc(-c2ccc(-c3ccc(-c4c[nH]c([C@@H]5CCCN5C(=O)[C@@H](NC(=O)OC)C(C)C)n4)c(F)c3)cc2)c[nH]1)C(C)C [Example J14e, methyl ((1S)-1-(((2S)-4,4-difluoro-2-(4-(3'-fluoro-4'-(2-((2S)-1-((2S)-2-((methoxycarbonyl)amino)-3-methylbutanoyl)-2-pyrrolidinyl)-1H-imidazol-4-yl)-4-biphenylyl)-1H-imidazol-2-yl)-1-pyrrolidinyl)carbonyl)-2-methylpropyl)carba mate]",0.001 to 0.999 nM
18,"CC[C@H](NC(=O)OC)C(=O)N1[C@@H]2C[C@@H]2C[C@H]1c1nc(-c2ccc(-c3ccc(-c4c[nH]c([C@@H]5C[C@H]6C[C@H]6N5C(=O)[C@H](CC)NC(=O)OC)n4)cc3)cc2)c[nH]1 [Example M133, dimethyl (4,4'-biphenyldiylbis(1H-imidazole-4,2-diyl(1R,3S,5R)-2-azabicyclo[3.1.0]hexane-3,2-diyl((2S)-1-oxo-1,2-butanediyl)))biscarbamate]",0.001 to 0.999 nM
